This is an account of results in US8383584B2, “HCV inhibiting macrocyclic phenylcarbamates” (Medivir AB, priority 2007, dated 2013).

In assay [1] the test system is HCV replicons (Huh-7 luc/neo cells, NS3-NS5B regions of HCV type 1b). The experiment in a line: Replicon assay (Huh-Luc luciferase, HCV RNA replication). Conditions: Hepatitis C virus, Huh-7, 72 h, read-out: EC50 Replicon assay. The format is cell-based. An excerpt:
The compounds of formula (I) were examined for activity in the inhibition of HCV RNA replication in a cellular assay. […] The cellular assay was based on a bicistronic expression construct, as described by Lohmann et al. (1999) Science vol. 285 pp. 110-113 with modifications described by Krieger et al. (2001) Journal of Virology 75: 4614-4624, in a multi-target screening strategy. In essence, the method was as follows.
The assay utilized the stably transfected cell line Huh-7 luc/neo (hereafter referred to as Huh-Luc). This cell line harbors an RNA encoding a bicistronic expression construct comprising the wild type NS3-NS5B regions of HCV type 1b translated from an Internal Ribosome Entry Site (IRES) from encephalomyocarditis virus (EMCV), preceded by a reporter portion (FfL-luciferase), and a selectable marker portion (neo^R, neomycine phosphotransferase). The construct is bordered by 5′ and 3′ NTRs (non-translated regions) from HCV type 1b. Continued culture of the replicon cells in the presence of G418 (neo^R) is dependent on the replication of the HCV RNA. The stably transfected replicon cells that express HCV RNA, which replicates autonomously and to high levels, encoding inter alia luciferase, are used for screening the antiviral compounds.
The replicon cells were plated in 384 well plates in the presence of the test and control compounds which were added in various concentrations. Following an incubation of three days, HCV replication was measured by assaying luciferase activity (using standard luciferase assay substrates and reagents and a Perkin Elmer ViewLux™ ultraHTS microplate imager). Replicon cells in the control cultures have high luciferase expression in the absence of any inhibitor. The inhibitory activity of the compound on luciferase activity was monitored on the Huh-Luc cells, enabling a dose-response curve for each test compound. EC50 values were then calculated, which value represents the amount of the compound required to decrease by 50% the level of detected luciferase activity, or more specifically, the ability of the genetically linked HCV replicon RNA to replicate.
Background: Replicon systems follow genome replication, usually without infectious particles.

Assay [2] deals with T1, HCV NS3/4A protease complexes (full-length hepatitis C NS3 protease enzyme) (Hepatitis C virus genotype 1a, UniProt P27958).
T1 construct: full-length hepatitis C NS3 protease enzyme
The experiment in a line: Inhibition assay (enzyme assay), depsipeptide substrate hydrolysis with NS4A cofactor. The format is biochemical. Conditions: 1 nM enzyme, 25 μM NS4A cofactor, 0.5 μM substrate, 30° C. As for the experimental part: The aim of this in vitro assay was to measure the inhibition of HCV NS3/4A protease complexes by the compounds of the present invention. This assay provides an indication of how effective compounds of the present invention would be in inhibiting HCV NS3/4A proteolytic activity.
The inhibition of full-length hepatitis C NS3 protease enzyme was measured essentially as described in Poliakov, 2002 Prot Expression & Purification 25 363 371. Briefly, the hydrolysis of a depsipeptide substrate, Ac-DED(Edans)EEAbuψ[COO]ASK(Dabcyl)-NH2 (AnaSpec, San José, USA), was measured spectrofluorometrically in the presence of a peptide cofactor, KKGSVVIVGRIVLSGK (Åke Engström, Department of Medical Biochemistry and Microbiology, Uppsala University, Sweden). [Landro, 1997 #Biochem 36 9340-9348]. The enzyme (1 nM) was incubated in 50 mM HEPES, pH 7.5, 10 mM DTT, 40% glycerol, 0.1% n-octyl-D-glucoside, with 25 μM NS4A cofactor and inhibitor at 30° C. for 10 min, whereupon the reaction was initiated by addition of 0.5 μM substrate. Inhibitors were dissolved in DMSO, sonicated for 30 sec. and vortexed. The solutions were stored at −20° C. between measurements.
The final concentration of DMSO in the assay sample was adjusted to 3.3%. The rate of hydrolysis was corrected for inner filter effects according to published procedures [Liu, Analytical Biochemistry, 1999, vol. 267, pp. 331-335]. Ki values were estimated by non-linear regression analysis (GraFit, Erithacus Software, Staines, MX, UK), using a model for competitive inhibition and a fixed value for Km (0.15 μM). A minimum of two replicates was performed for all measurements.

Where [3] appears, read: Huh-Luc cells, three days incubation, luciferase activity.

Each structure is given as a SMILES string. Where two headings read alike, the source gives them in different places.

T1 sequence (P27958 1027-1657, one chain of several): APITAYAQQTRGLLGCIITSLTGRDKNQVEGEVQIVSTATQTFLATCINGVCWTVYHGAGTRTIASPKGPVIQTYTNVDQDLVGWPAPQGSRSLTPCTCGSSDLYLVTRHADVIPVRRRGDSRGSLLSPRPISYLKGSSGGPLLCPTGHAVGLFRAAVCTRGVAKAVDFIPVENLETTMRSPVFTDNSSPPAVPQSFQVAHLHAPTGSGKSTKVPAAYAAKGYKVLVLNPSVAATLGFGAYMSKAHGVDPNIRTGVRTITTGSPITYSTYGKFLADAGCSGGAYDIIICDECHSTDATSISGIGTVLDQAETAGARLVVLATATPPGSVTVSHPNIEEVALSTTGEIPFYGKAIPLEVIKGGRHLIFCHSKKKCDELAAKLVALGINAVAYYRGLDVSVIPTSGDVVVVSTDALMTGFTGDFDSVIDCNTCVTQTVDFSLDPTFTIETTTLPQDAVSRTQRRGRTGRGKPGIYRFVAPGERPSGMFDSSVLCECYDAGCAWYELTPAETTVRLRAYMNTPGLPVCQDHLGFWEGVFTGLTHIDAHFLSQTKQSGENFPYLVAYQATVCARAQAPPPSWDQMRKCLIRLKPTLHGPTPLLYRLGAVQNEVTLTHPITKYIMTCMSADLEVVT

Turning to `CN1CCCCC=CC2CC2(C(=O)NS(=O)(=O)C2CC2)NC(=O)C2CC(OC(=O)Nc3ccccc3C#N)CC2C1=O` (stereo not drawn) [Example 1, (2-Cyanophenyl)-carbamic acid 4-cyclopropanesulfonylaminocarbonyl-13-methyl-2,14-dioxo-3,13-diaza-tricyclo[13.3.0.0*4,6*]octadec-7-en-17-yl ester], in assay [1] (setting [3]), the EC50 (as a rule, the concentration that produces a half-maximal response) was more than 10 µM. Also, the inhibitory constant (Ki) (in general, the equilibrium dissociation constant of an inhibitor or competing ligand from its target) in assay [2] fell in the range of 0.03 to 0.1 µM.
The matching figures for `CN1CCCC/C=C\[C@@H]2C[C@@]2(C(=O)NS(=O)(=O)C2CC2)NC(=O)[C@@H]2C[C@@H](OC(=O)Nc3ccccc3Oc3ccccc3)C[C@H]2C1=O` [Example 2, (2-Phenoxyphenyl)-carbamic acid 4-cyclopropanesulfonylaminocarbonyl-13-methyl-2,14-dioxo-3,13-diaza-tricyclo[13.3.0.0*4,6*]octadec-7-en-17-yl ester]: 1 to 10 µM and 0.0001 to 0.0299 µM.
The matching figures for `COc1ccccc1NC(=O)O[C@@H]1C[C@H]2C(=O)N[C@]3(C(=O)NS(=O)(=O)C4CC4)C[C@H]3/C=C\CCCCN(C)C(=O)[C@@H]2C1` [Example 3, (2-Methoxy-phenyl)-carbamic acid 4-cyclopropanesulfonylaminocarbonyl-13-methyl-2,14-dioxo-3,13-diaza-tricyclo[13.3.0.0*4,6*]octadec-7-en-17-yl ester]: 1 to 10 µM and 0.0001 to 0.0299 µM.
`COC(=O)c1cccc(NC(=O)O[C@@H]2C[C@H]3C(=O)N[C@]4(C(=O)NS(=O)(=O)C5CC5)C[C@H]4/C=C\CCCCN(C)C(=O)[C@@H]3C2)c1` [Example 5, 3-(4-Cyclopropanesulfonylaminocarbonyl-13-methyl-2,14-dioxo-3,13-diaza-tricyclo-[13.3.0.0*4,6*]octadec-7-en-17-yloxycarbonylamino)-benzoic acid methyl ester]: the EC50 in assay [1] (setting [3]) fell in the range of 1 to 10 µM.
Still for that read-out and setting: for `COc1ccc(C#N)cc1NC(=O)OC1CC2C(=O)NC3(C(=O)NS(=O)(=O)C4(C)CC4)CC3C=CCCCCN(C)C(=O)C2C1` (stereo not drawn) [Example 6c, (5-Cyano-2-methoxy-phenyl)-carbamic acid 13-methyl-4-(1-methyl-cyclopropanesulfonylaminocarbonyl)-2,14-dioxo-3,13-diaza-tricyclo[13.3.0.0*4,6*]-octadec-7-en-17-yl ester] the value was more than 10 µM.
As to `CN1CCCC/C=C\[C@@H]2C[C@@]2(C(=O)NS(=O)(=O)C2(C)CC2)NC(=O)[C@@H]2C[C@@H](OC(=O)Nc3cccc(N(C)C)c3)C[C@H]2C1=O` [Example 9, (3-Dimethylaminophenyl)-carbamic acid 13-methyl-4-(1-methyl-cyclopropane-sulfonylaminocarbonyl)-2,14-dioxo-3,13-diaza-tricyclo[13.3.0.0*4,6*]octadec-7-en-17-yl ester], the EC50 in assay [1] lay in the range of 1 to 10 µM.
With `COc1cccc(NC(=O)O[C@@H]2C[C@H]3C(=O)N[C@]4(C(=O)NS(=O)(=O)C5CC5)C[C@H]4/C=C\CCCCN(C)C(=O)[C@@H]3C2)c1` [Example 10, (3-Methoxyphenyl)-carbamic acid 4-cyclopropanesulfonylaminocarbonyl-13-methyl-2,14-dioxo-3,13-diaza-tricyclo[13.3.0.0*4,6*]octadec-7-en-17-yl ester], in assay [1] (setting [3]), the concentration for a half-maximal effect (EC50) lay within 1 to 10 µM.
Still for that read-out and setting: for `CN1CCCC/C=C\[C@@H]2C[C@@]2(C(=O)NS(=O)(=O)C2CC2)NC(=O)[C@@H]2C[C@@H](OC(=O)Nc3cccc(Oc4ccccc4)c3)C[C@H]2C1=O` [Example 11, (3-Phenoxy-phenyl)-carbamic acid 4-cyclopropanesulfonylaminocarbonyl-13-methyl-2,14-dioxo-3,13-diaza-tricyclo[13.3.0.0*4,6*]octadec-7-en-17-yl ester] the value was 1 to 10 µM.
Same read-out and setting: under `CN1CCCC/C=C\[C@@H]2C[C@@]2(C(=O)NS(=O)(=O)C2CC2)NC(=O)[C@@H]2C[C@@H](OC(=O)Nc3cccc(C#N)c3)C[C@H]2C1=O` [Example 12, (3-Cyano-phenyl)-carbamic acid 4-cyclopropanesulfonylaminocarbonyl-13-methyl-2,14-dioxo-3,13-diaza-tricyclo[13.3.0.0*4,6*]octadec-7-en-17-yl ester] stands 0.2 to 0.99 µM.
For the compound `CN1CCCC/C=C\[C@@H]2C[C@@]2(C(=O)NS(=O)(=O)C2(C)CC2)NC(=O)[C@@H]2C[C@@H](OC(=O)Nc3cccc(C#N)c3)C[C@H]2C1=O` [Example 13, (3-Cyanophenyl)-carbamic acid 13-methyl-4-(1-methylcyclopropanesulfonylamino-carbonyl)-2,14-dioxo-3,13-diaza-tricyclo[13.3.0.0*4,6*]octadec-7-en-17-yl ester], the EC50 in assay [1] (setting [3]) is 0.0005 to 0.199 µM.
Same read-out and setting: under `COc1cccc(NC(=O)O[C@@H]2C[C@H]3C(=O)N[C@]4(C(=O)NS(=O)(=O)C5(C)CC5)C[C@H]4/C=C\CCCCN(C)C(=O)[C@@H]3C2)c1` [Example 14, (3-Methoxy-phenyl)-carbamic acid 13-methyl-4-(1-methyl-cyclopropanesulfonyl-aminocarbonyl)-2,14-dioxo-3,13-diaza-tricyclo[13.3.0.0*4,6*]octadec-7-en-17-yl ester] stands 0.2 to 0.99 µM; under `Cc1cccc(NC(=O)O[C@@H]2C[C@H]3C(=O)N[C@]4(C(=O)NS(=O)(=O)C5CC5)C[C@H]4/C=C\CCCCN(C)C(=O)[C@@H]3C2)c1` [Example 15, m-Tolyl-carbamic acid 4-cyclopropanesulfonylaminocarbonyl-13-methyl-2,14-dioxo-3,13-diaza-tricyclo[13.3.0.0*4,6*]octadec-7-en-17-yl ester], more than 10 µM; under `Cc1ccc(F)c(NC(=O)O[C@@H]2C[C@H]3C(=O)N[C@]4(C(=O)NS(=O)(=O)C5CC5)C[C@H]4/C=C\CCCCN(C)C(=O)[C@@H]3C2)c1` [Example 16, (2-Fluoro-5-methyl-phenyl)-carbamic acid 4-cyclopropanesulfonylaminocarbonyl-13-methyl-2,14-dioxo-3,13-diaza-tricyclo[13.3.0.0*4,6*]octadec-7-en-17-yl ester], 1 to 10 µM.
On to `Cc1nc(-c2cccc(NC(=O)O[C@@H]3C[C@H]4C(=O)N[C@]5(C(=O)NS(=O)(=O)C6CC6)C[C@H]5/C=C\CCCCN(C)C(=O)[C@@H]4C3)c2)cs1` [Example 17, [3-(2-Methyl-thiazol-4-yl)-phenyl]-carbamic acid 4-cyclopropanesulfonylamino-carbonyl-13-methyl-2,14-dioxo-3,13-diaza-tricyclo[13.3.0.0*4,6*]octadec-7-en-17-yl ester], for which, in assay [1] (setting [3]), the EC50 lay in the range of 1 to 10 µM.
As to `Cc1ccc(C#N)c(NC(=O)O[C@@H]2C[C@H]3C(=O)N[C@]4(C(=O)NS(=O)(=O)C5CC5)C[C@H]4/C=C\CCCCN(C)C(=O)[C@@H]3C2)c1` [Example 18, (2-Cyano-5-methyl-phenyl)-carbamic acid 4-cyclopropanesulfonylaminocarbonyl-13-methyl-2,14-dioxo-3,13-diaza-tricyclo[13.3.0.0*4,6*]octadec-7-en-17-yl ester], in assay [1] (setting [3]), the EC50 lay within 0.2 to 0.99 µM.
